From patent US20160053226A1, “Method and Medium for Amplifying Neural Precursor Cells” (INSERM (INSTITUT NATIONAL DE LA SANTÉ ET DE LA RECHERCHE …, priority 2013, published 2016)

What was measured:
neural precursors [1] = assay: Kinase inhibitor library screening for sustaining neural precursor proliferation (Ki67, EdU incorporation); assay type: cell-based, human; details: SA001-derived neural precursors, N2B27 without growth factors, day 7, compared to DMSO-treated cells
Experimental: Cells were fixed with 4% PFA for 15 min at 4° C. then permeabilized using a PBS/0.3% Triton X100 solution, 10 min at RT. Incubation with primary antibodies was performed. AlexaFluor secondary antibodies and DAPI counterstaining were applied for 1 h at room temperature. Detection was performed using a Zeiss Inverted microscope or the Arrayscan automated microscope.
A homogeneous population of neural precursors was produced after conversion of SA001 PSC line into neural cells and further amplification using EFB medium until passage 8. The stable neural precursors were seeded in 384 well-plates using Agilent BRAVO automate in N2B27 without growth factors. Six hours post-seeding, cells were treated with Enzo Life Sciences Kinase inhibitors library (BML-2832), a collection of 80 different kinase inhibitors. Another treatment was performed at day 4 and the percentage of proliferative precursors was quantified at day 7 using Ki67 and EdU incorporation. SOX2 was used as a neural marker.

neural precursors [2] = assay: Terminal differentiation into neurons of amplified neural precursors; assay type: cell-based, human; details: amplified for 5 passages, compared to EFB medium
Source text: Terminal differentiation into neurons was induced by plating neural precursors on poly-ornithin/laminin at a density of 50,000 cells/cm^2 in N2B27 medium. Medium was changed every 4 days.
We next measured the ability of neural precursors amplified using the PKA inhibitor HA1004 for 5 passages to produce neurons. This was compared to the production of neurons obtained from precursor amplified using EFB medium as a reference.

SMILES	neural precursor self-renewal (percentage of Ki67 positive cells) (neural precursors [1])	ability of amplified neural precursors to produce neurons (neural precursors [2])
CC1CNCCN1S(=O)(=O)c1cccc2cnccc12 (centres unmarked) [H7]	sustained neural precursor self-renewal	
CNCCNS(=O)(=O)c1cccc2cnccc12 [H8]	sustained neural precursor self-renewal	
NCCNS(=O)(=O)c1cccc2cnccc12 [H9]	sustained neural precursor self-renewal	
Cl.N=C(N)NCCNS(=O)(=O)c1cccc2cnccc12 [HA1004, N-(2′-Guanidinoethyl)-5-isoquinolinesulfonamide.HCl]		did not impact on their ability to produce neurons
O=S(=O)(c1cccc2cnccc12)N1CCCNCC1 [HA1077]	sustained neural precursor self-renewal	
